Experimental data from patent US20220061311A1, “COMPOSITIONS AND METHODS FOR REDUCING CRYOPRESERVATION TOXICITY” (The Regents of the University of Colorado, a body, priority 2018, published 2022).
Values joined by “and” are separate entries in the source; they are usually repeats but may differ in a detail not shown here. Equal entries are not always repeated. Where two headings read alike, the source gives them in different places.

Assays:
MYH9 protein = MYH9 protein (Homo sapiens, UniProt P35579); conditions: Chiu et al., Molecular Oncology 6, 2012; cited from earlier work
MYH9 protein, sequence (P35579 whole entry, species assumed): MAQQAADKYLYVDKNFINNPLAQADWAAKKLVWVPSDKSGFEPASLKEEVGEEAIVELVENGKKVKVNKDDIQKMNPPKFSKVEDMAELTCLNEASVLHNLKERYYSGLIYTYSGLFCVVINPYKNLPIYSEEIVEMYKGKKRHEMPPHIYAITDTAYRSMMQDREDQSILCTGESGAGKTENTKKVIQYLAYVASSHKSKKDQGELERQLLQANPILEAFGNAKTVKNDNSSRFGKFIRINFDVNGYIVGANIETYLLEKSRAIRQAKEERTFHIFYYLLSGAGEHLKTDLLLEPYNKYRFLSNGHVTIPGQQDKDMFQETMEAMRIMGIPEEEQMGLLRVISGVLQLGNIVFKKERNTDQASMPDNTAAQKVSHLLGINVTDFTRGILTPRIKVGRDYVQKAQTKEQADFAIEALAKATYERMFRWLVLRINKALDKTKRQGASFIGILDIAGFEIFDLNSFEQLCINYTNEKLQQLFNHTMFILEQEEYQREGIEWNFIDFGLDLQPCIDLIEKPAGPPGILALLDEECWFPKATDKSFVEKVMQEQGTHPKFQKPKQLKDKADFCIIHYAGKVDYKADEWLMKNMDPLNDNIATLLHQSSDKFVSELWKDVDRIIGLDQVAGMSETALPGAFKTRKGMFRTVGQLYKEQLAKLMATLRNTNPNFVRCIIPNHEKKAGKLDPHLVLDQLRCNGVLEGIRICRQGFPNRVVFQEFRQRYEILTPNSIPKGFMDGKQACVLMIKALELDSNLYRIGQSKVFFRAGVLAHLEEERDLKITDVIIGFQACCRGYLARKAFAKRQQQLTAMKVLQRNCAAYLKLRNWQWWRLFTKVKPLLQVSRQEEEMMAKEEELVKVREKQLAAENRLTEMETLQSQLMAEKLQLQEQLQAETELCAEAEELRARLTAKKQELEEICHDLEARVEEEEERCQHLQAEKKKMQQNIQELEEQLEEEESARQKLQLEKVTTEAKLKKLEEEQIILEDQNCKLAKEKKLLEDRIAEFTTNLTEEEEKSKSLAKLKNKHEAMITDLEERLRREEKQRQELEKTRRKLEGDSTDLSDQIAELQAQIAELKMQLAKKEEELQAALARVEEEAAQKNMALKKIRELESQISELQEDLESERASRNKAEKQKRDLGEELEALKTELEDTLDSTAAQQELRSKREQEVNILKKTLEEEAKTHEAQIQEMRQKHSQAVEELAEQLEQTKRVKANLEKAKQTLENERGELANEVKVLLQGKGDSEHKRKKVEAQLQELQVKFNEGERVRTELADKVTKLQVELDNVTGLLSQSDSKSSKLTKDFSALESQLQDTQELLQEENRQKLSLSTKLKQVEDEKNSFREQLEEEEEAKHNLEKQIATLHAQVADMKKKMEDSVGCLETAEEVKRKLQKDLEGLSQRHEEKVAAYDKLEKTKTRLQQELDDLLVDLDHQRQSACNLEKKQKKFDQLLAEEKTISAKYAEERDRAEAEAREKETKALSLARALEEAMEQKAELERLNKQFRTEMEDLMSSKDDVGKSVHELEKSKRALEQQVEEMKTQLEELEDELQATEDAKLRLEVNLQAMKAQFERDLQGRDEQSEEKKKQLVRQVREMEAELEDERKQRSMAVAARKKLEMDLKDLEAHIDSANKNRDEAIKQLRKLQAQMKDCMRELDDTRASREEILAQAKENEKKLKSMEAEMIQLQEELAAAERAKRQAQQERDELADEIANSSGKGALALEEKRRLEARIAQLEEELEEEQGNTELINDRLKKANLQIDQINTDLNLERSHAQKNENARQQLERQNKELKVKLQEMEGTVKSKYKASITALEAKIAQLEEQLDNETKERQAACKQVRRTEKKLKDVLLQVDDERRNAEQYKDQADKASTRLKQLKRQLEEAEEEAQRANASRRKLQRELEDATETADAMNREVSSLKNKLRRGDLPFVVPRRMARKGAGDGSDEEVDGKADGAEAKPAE

TJ1060 worms [1] = assay: Worms on 10% M22 +/- Afatinib in liquid survival medium; assay type: in vivo, C. elegans; parameters: Mean (survival): unit not given here
Description: FIG. 6 is a histogram. Sterile young adult worms (TJ1060) were put into liquid survival medium with 10% M22 and varying concentrations of Afatinib and followed until all were dead. Data from 4 replicate blinded experiments are shown.
Young adult worms from TJ1060 were grown on agar plates at 25° C. with varying concentrations of Afatinib and put into liquid survival medium with 10% M22+/−Afatinib at 20° C. They were followed until all were dead. Data from 4 replicate experiments are shown; experiments were blinded.

ERB3/4 = conditions: cited from earlier work
[2] = test system: Mouse embryonic stem cells (ESCs); assay: Afatinib pre-treatment of mouse embryonic stem cells before M22 toxicity challenge; assay type: cell-based
Description: Mouse embryonic stem cells (ESCs) were pre-treated with Afatinib in concentrations of 1 nM, 7.5 nM, 15 nM, 30 nM, and 75 nM. The ESCs were then subjected to various concentrations of M22, including a lethal challenge of 6% in normal culture media.

TJ1060 worms [3] = assay: Survival on Afatinib on agar plates; assay type: in vivo, C. elegans; parameters: Mean (survival): unit not given here; conditions: for Mean (survival) / survival (vs no Afatinib control): agar plates
Description: Eggs from TJ1060 were put onto NGM agar plates with varying concentrations of Afatinib at 25° C. On day 3, sterile staged young adult worms were moved to agar plates with Afatinib at 20° C. and followed until all were dead.

HSBP1 protein = conditions: Arai et al., Chem. Sci., 2016; cited from earlier work
[4] = 10% M22 + Afatinib 10 nM, summary of 4 experiments
[5] = 10% M22 + Afatinib 100 nM, summary of 4 experiments
[6] = 10% M22 + Afatinib 1000 nM, summary of 4 experiments

In the case of `Cc1ccc2c(c1)C(=O)C1(O)CCN(c3ccccc3)C1=N2` (stereo not shown) [Blebbistatin], the “inhibition of MYH9 protein” value (MYH9 protein) is given as “Blebbistatin inhibits the MYH9”.
For `CN(C)C/C=C/C(=O)Nc1cc2c(Nc3ccc(F)c(Cl)c3)ncnc2cc1O[C@H]1CCOC1` [Afatinib], the “Mean (survival)” value (TJ1060 worms [1]; 10% M22 + Afatinib 10 nM, liquid, 20° C., single experiments) was 12.4 and 12.3 and 14.6 and 10.4, the “resistance (vs no Afatinib control)” value (TJ1060 worms [1]; 10% M22 + Afatinib 10 nM, single experiments) was “ns and less” and the “Mean (survival)” value (TJ1060 worms [1]; [4]) was 12.5. The “resistance (vs no Afatinib control)” value (TJ1060 worms [1]; [4]) was “ns”, the “Mean (survival)” value (TJ1060 worms [1]; 10% M22 + Afatinib 100 nM, liquid, 20° C., single experiments) was 13.5 and 13.2 and 15.3 and 11.3 and the “resistance (vs no Afatinib control)” value (TJ1060 worms [1]; 10% M22 + Afatinib 100 nM, single experiments) was “more and ns”. For the same compound, the “Mean (survival)” value (TJ1060 worms [1]; [5]) was 13.4, the “resistance (vs no Afatinib control)” value (TJ1060 worms [1]; [5]) was “more” and the “Mean (survival)” value (TJ1060 worms [1]; 10% M22 + Afatinib 1000 nM, liquid, 20° C., single experiments) was 13.2 and 13.0 and 15.6 and 10.3. The “resistance (vs no Afatinib control)” value (TJ1060 worms [1]; 10% M22 + Afatinib 1000 nM, single experiments) was “ns and more”, the “Mean (survival)” value (TJ1060 worms [1]; [6]) was 13.0 and the “resistance (vs no Afatinib control)” value (TJ1060 worms [1]; [6]) was “ns”. For the same compound, the “protection of worms in 10% M22” value (TJ1060 worms [1]; Afatinib 10 or 1000 nm) was “not”, the “survival in 10% M22 compared with control of no afatinib (FIG. 6)” value (TJ1060 worms [1]; Afatinib at 100 nM, 4 replicate blinded experiments, p<0.001) was “significantly better than control of no afatinib” and the “protection of worms in 10% M22” value (TJ1060 worms [1]; Afatinib concentration of 100 nm) was “protects worms in 10% M22”. The IC50 (ERB3/4; read-out: IC50) was about 1 nM, the IC50 (ERB3/4; read-out: IC50 DOSE) was 1 nM and the “resistance to M22 toxicity” value ([2]; ESCs pre-treated with Afatinib 1-75 nM, lower M22 concentrations (FIG. 1)) was “increased resistance to M22 toxicity”. For the same compound, the “survival of otherwise lethal M22 challenge” value ([2]; ESCs pre-treated with Afatinib, 6% M22 in normal culture media (FIG. 1)) was “survived an otherwise lethal M22 challenge”, the “survival of cells after cryopreservative toxicity challenge with M22 (FIG. 1)” value ([2]; cells treated with Afatinib prior to M22 challenge) was “increased survival” and the “Mean (survival)” value (TJ1060 worms [3]; Afatinib 10 nM, no M22, single experiments) was 20.5 and 19.7 and 19.1 and 22.1. For the same compound, the “survival (vs no Afatinib control)” value (TJ1060 worms [3]; Afatinib 10 nM, single experiments) was “less and ns”, the “Mean (survival)” value (TJ1060 worms [3]; Afatinib 10 nM, summary) was 20.3 and the “survival (vs no Afatinib control)” value (TJ1060 worms [3]; Afatinib 10 nM, summary) was “ns”. For the same compound, the “Mean (survival)” value (TJ1060 worms [3]; Afatinib 20 nM, no M22, single experiment) was 21.1, the “survival (vs no Afatinib control)” value (TJ1060 worms [3]; Afatinib 20 nM, single experiment) was “ns” and the “Mean (survival)” value (TJ1060 worms [3]; Afatinib 100 nM, no M22, single experiments) was 19.4 and 21.1 and 19.8 and 21.8. For the same compound, the “survival (vs no Afatinib control)” value (TJ1060 worms [3]; Afatinib 100 nM, single experiments) was “less and more and ns”, the “Mean (survival)” value (TJ1060 worms [3]; Afatinib 100 nM, summary) was 20.4 and the “survival (vs no Afatinib control)” value (TJ1060 worms [3]; Afatinib 100 nM, summary) was “ns”. For the same compound, the “Mean (survival)” value (TJ1060 worms [3]; Afatinib 1000 nM, no M22, single experiments) was 20.8 and 21.7 and 19.4 and 20.0, the “survival (vs no Afatinib control)” value (TJ1060 worms [3]; Afatinib 1000 nM, single experiments) was “ns and more and less” and the “Mean (survival)” value (TJ1060 worms [3]; Afatinib 1000 nM, summary) was 20.6. The “survival (vs no Afatinib control)” value (TJ1060 worms [3]; Afatinib 1000 nM, summary) was “less” and the longevity effect (TJ1060 worms [3]; worms, Afatinib without M22) was “did not have a longevity effect”.
In the case of `COc1ccc(-c2cc(=O)c3c(O[C@@H]4O[C@H](CO[C@@H]5OC[C@@H](O)[C@H](O)[C@H]5O)[C@@H](O)[C@H](O)[C@H]4O)cc(OC)cc3o2)cc1` [Agalloside], the “inhibition of HSBP1 protein” value (HSBP1 protein) is listed as “Agalloside inhibits the HSBP1”.
